Reference: US8809367B2, “1-1-Oxo-1,2,3,4-tetrahydroisoquinolin-7-yl)urea derivatives as N-formyl peptide receptor like-1 (FPRL-1) receptor modulators” (Allergan, Inc., priority 2011, dated 2014)
pEC50: −log10 of the molar value.

Molecular target: T1, FPRL-1 (Homo sapiens, UniProt P25090)
T1 construct: expressed in transfected cells
T1 sequence (P25090 1-351): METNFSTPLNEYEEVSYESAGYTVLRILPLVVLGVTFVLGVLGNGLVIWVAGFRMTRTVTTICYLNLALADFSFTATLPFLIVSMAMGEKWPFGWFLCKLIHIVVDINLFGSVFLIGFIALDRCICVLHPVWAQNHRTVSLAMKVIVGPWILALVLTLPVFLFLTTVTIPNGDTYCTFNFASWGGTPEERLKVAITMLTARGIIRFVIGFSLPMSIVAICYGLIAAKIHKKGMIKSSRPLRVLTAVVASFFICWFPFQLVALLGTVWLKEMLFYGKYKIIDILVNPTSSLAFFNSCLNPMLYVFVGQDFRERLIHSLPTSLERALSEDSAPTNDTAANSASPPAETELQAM
Assay: compound-induced calcium activity on FLIPR Tetra in CHO-Ga16 cells stably expressing FPRL1
Format: cell-based
Conditions: for FPRL-1 Ga16-CHO (eff): efficacy value in brackets under EC50; for pEC50: tested at 0.61 to 10,000 nM
Procedure: CHO-Ga16 cells stably expressing FPRL1 were cultured in (F12, 10% FBS, 1% PSA, 400 μg/ml geneticin and 50 μg/ml hygromycin) and HEK-Gqi5 cells stable expressing FPR1 were cultured in (DMEM high glucose, 10% FBS, 1% PSA, 400 μg/ml geneticin and 50 μg/ml hygromycin). In general, the day before the experiment, 18,000 cells/well were plated in a 384-well clear bottom poly-d-lysine coated plate. The following day the screening compound-induced calcium activity was assayed on the FLIPR^Tetra. The drug plates were prepared in 384-well microplates using the EP3 and the MultiPROBE robotic liquid handling systems. Compounds were tested at concentrations ranging from 0.61 to 10,000 nM. Results are expressed as EC50 (nM) and efficacy values.

| SMILES | FPRL-1 Ga16-CHO (eff) | pEC50 |
| --- | --- | --- |
| CNCCN1C(=O)c2cc(NC(=O)Nc3ccc(C(C)=O)cc3)ccc2CC1c1ccc(C#N)cc1 (stereo not drawn) [Compound 3, 1-(4-acetylphenyl)-3-{3-(4-cyanophenyl)-2-[2-(methylamino)ethyl]-1-oxo-1,2,3,4-tetrahydroisoquinolin-7-yl}urea] | (1.00) | 7.49 |
| CC(=O)c1ccc(NC(=O)Nc2ccc3c(c2)C(=O)N(CCc2c[nH]cn2)C(c2ccc(Cl)c(Cl)c2)C3)cc1 (stereo not drawn) [Compound 20, 1-(4-acetylphenyl)-3-{3-(3,4-dichlorophenyl)-2-[2-(1H-imidazol-4-yl)ethyl]-1-oxo-1,2,3,4-tetrahydroisoquinolin-7-yl}urea] | (1.04) | 7.55 |
| CC(=O)c1ccc(NC(=O)Nc2ccc3c(c2)C(=O)N(CCN)C(c2ccc(C#N)cc2)C3)cc1 (stereo not drawn) [Compound 2, 1-(4-acetylphenyl)-3-[2-(2-aminoethyl)-3-(4-cyanophenyl)-1-oxo-1,2,3,4-tetrahydroisoquinolin-7-yl]urea] | (0.90) | 7.47 |
| N#Cc1ccc(C2Cc3ccc(NC(=O)Nc4ccc(C(F)(F)F)cc4)cc3C(=O)N2CCc2c[nH]cn2)cc1 (stereo not drawn) [Compound 19, 1-{3-(4-cyanophenyl)-2-[2-(1H-imidazol-4-yl)ethyl]-1-oxo-1,2,3,4-tetrahydroisoquinolin-7-yl}-3-[4-(trifluoromethyl)phenyl]urea] | (0.78) | 7.49 |
| CS(=O)(=O)c1ccc(NC(=O)Nc2ccc3c(c2)C(=O)N(CCc2c[nH]cn2)C(c2ccc(F)cn2)C3)cc1 (stereo not drawn) [Compound 32, 1-{3-(5-fluoropyridin-2-yl)-2-[2-(1H-imidazol-4-yl)ethyl]-1-oxo-1,2,3,4-tetrahydroisoquinolin-7-yl}-3-[4-(methylsulfonyl)phenyl]urea] | (1.0) | 7.98 |
| CSc1ccc(NC(=O)Nc2ccc3c(c2)C(=O)N(CCc2c[nH]cn2)C(c2ccc(Cl)o2)C3)cc1 (stereo not drawn) [Compound 24, 1-{3-(5-chloro-2-furyl)-2-[2-(1H-imidazol-4-yl)ethyl]-1-oxo-1,2,3,4-tetrahydroisoquinolin-7-yl}-3-[4-(methylthio)phenyl]urea] | (0.81) | 7.77 |
| CS(=O)(=O)c1ccc(NC(=O)Nc2ccc3c(c2)C(=O)N(CCCN)[C@H](c2ccc(C#N)cc2)C3)cc1 [Compound 14, (S)-1-[2-(3-aminopropyl)-3-(4-cyanophenyl)-1-oxo-1,2,3,4-tetrahydroisoquinolin-7-yl]-3-[4-(methylsulfonyl)phenyl]urea] | (1.3) |  |
| N#Cc1ccc(C2Cc3ccc(NC(=O)Nc4ccc(C(F)(F)F)cc4)cc3C(=O)N2CCCN)cc1 (stereo not drawn) [Compound 4, 1-[2-(3-aminopropyl)-3-(4-cyanophenyl)-1-oxo-1,2,3,4-tetrahydroisoquinolin-7-yl]-3-[4-(trifluoromethyl)phenyl]urea] | (0.78) | 7.68 |
